The source of these data is patent US20150004620A1, “METHOD OR DEVICE FOR IDENTIFYING INHIBITOR OF EPITHELIAL MESENCHYMAL TRANSITION” (Agency for Science, Technology and Research, priority 2011, published 2015).

What all share (type): cell-based
The subject of test [1] is EGF-induced EMT in NBT-II cells. In words: EMT spot migration assay, EGF-induced. The settings on record: EGF-induced EMT (20 ng/ml EGF), NBT-II cells, CDR dose response from 6.67 μM; read-out: Cell Dispersion IC 50, EGF. Here is the method:
(§1) NBT-II cells were stably transfected with mcherry-fluorescent H2B and maintained in DMEM supplemented with 10% fetal bovine serum (FBS, Thermo Scientific), 1 μg/ml puromycin (Sigma) and 100 units/ml penicillin-streptomycin (1× pen-strep, Invitrogen). Cells were grown to 80% confluency in tissue culture flasks prior to plating. Cells were trypsinized and concentrated to a density of 5×10^6 cell/ml in CO2-independent medium (Invitrogen) supplemented with 10% FBS. The cell suspension was then evenly dispersed into the wells of two columns of a 96-well V-bottom plate. Using a robotic liquid-handling station (Bravo, Agilent Technologies), 0.5 μl of cell suspension was transferred from the two columns of the cell suspension-loaded plate and deposited into the center of the wells of two columns of a 96-well clear bottom, black assay plate (Corning). This process was repeated six times so that all 96 wells of the assay plate were deposited with a cell suspension spot. The plate was then sealed to minimize evaporation of the cell suspension spots and transferred to a 37° C., 5% CO2 incubator to allow for cells to attach to the culture surface. After 1 hour, the plate was gently washed with medium once to remove unattached cells, refreshed with 100 μl of assay medium (DMEM supplemented with 10% FBS and 1× pen-strep), and then further incubated to allow for cell-cell contacts to establish in the cell colonies.
(§2) Four tiled, non-overlapping images were acquired around the center of each well, and were then stitched together during image analysis to generate a montage covering an area of 3.2 mm×3.2 mm. These images (T1) represent the initial state of the cell colonies before EMT induction.
(§3) After the T1 images were acquired, 1 μl of test compounds were transferred from compound stock plates and added to the assay plates. Appropriate negative controls (1 μl DMSO) and positive controls (1 μl 1.0 mM compound in DMSO) were also added into columns 1 and 12 of each assay plate, respectively. […] The cultures were then further incubated overnight.
(§4) The next day, 50 μl of growth factor-containing medium was added to each well of the assay-plates. For each of the growth factor-induced EMT spot migration assays, the final growth factor concentrations in each well is optimized to be 20 ng/ml EGF (Sigma), 4 ng/ml HGF (Calbiochem) or 150 ng/ml IGF-1 (R&D Systems), respectively. The cultures were then incubated for another 24 hours, to allow for EMT and sufficient cell motility/dispersion to occur in the cell colonies.
(§5) Finally, the cell colonies were imaged again using the microplate imager, as described above. These images (T2) represent the final state of the cell colonies after compound treatment and EMT induction. The acquired T1 and T2 image sets for each assay plate were then sent for image analysis.
(§6) The acquisition of each well was obtained by four adjacent field images with no interstice in between. Each field image was loaded and nuclei were initially segmented independently of other fields to prevent artifact at the field border. Nuclei segmentation was achieved by combining a wavelet transform which is robust to noise and unhomogeneous background, and a watershed algorithm based on intensities to split nuclei clusters. Mask of nuclei segmentation of the different fields were then stitched together in order to obtain a large segmentation of the whole well. Cell bodies were estimated by applying a morphological dilation on the nucleus segmentation using a disk of 30 pixels (48 μm) in diameter. In cells that are contiguous, such as in a cell colony, nuclei segmentation dilation will result in the formation of continuous region areas with surrounding cells which can then be identified as colonies.
(§7) Total cell number and spreading coefficient values for each well were then exported into an Excel sheet.

For test [2], the system named is HGF-induced EMT in NBT-II cells. In words: EMT spot migration assay, HGF-induced. Particulars: HGF-induced EMT (4 ng/ml HGF), CDR dose response from 6.67 μM, read-out: Cell Dispersion IC 50, HGF. Here is the method:
as §1, §2, §3, §4, §5, §6, §7

The test system of test [3] is lung carcinoma cell lines. The experiment in a line: Phase contrast cell morphology, lung carcinoma cell lines. The settings on record: A549, Calu-1 and H165.0 cell lines, 2 μM for 48 hours vs 0.02% DMSO. Here is the method: Cell lines were treated with 2 μM AZD0530 or 0.02% DMSO control for 48 hours. Scale bar is 100 μm. Thus, FIG. 8 provides an example of how the method as described herein may be validated by the use of various lung carcinoma cell lines.

The test system of test [4] is ovarian carcinoma cell lines. In words: Phase contrast cell morphology, ovarian carcinoma cell lines. Particulars: A2780J, DOV13 and HEY cell lines, 2 μM for 48 hours vs 0.02% DMSO. Here is the method: Cell lines were treated with 2 μM AZD0530 or 0.02% DMSO control for 48 hours. Scale bar is 200 μm. Thus, FIG. 9 provides an example of how the method as described herein may be validated by the use of various ovarian carcinoma cell lines.

The next test has as its system plakoglobin. In words: Western blot of plakoglobin in cell lines. The settings on record: 2 μM for 48 hours vs 0.02% DMSO. How it is done:
FIG. 10 is a western blot image showing the increase in epithelial marker plakoglobin expression induced by AZD0530 in cell lines. Cell lines were treated with 2 μM AZD0530 or 0.02% DMSO control for 48 hours. Thus, FIG. 10 provides an example of possible downstream analysis that may be conducted subsequent to the detection of possible inhibitor by the method as described herein. In this figure, western blot analysis was used to validate the possible inhibitor detected by the method as described herein.
For western blot experiments with other cell lines, cells are treated either with AZD0530, such as 2 μM AZD0530 or DMSO, such as 0.02% DMSO control for 48 h. The samples are then processed using the same procedure as described above. The samples were probed with MMP-13, E-cadherin, plakoglobin (Cell Signaling), α-tubulin, and β-actin (Cell Signaling) antibodies.
On the technique in general: A western blot detects proteins with antibodies after separation by electrophoresis.

The test system of test [5] is ovarian carcinoma cell lines. The experiment in a line: Cell movement tracking time-lapse videoscopy. The settings on record: 2 μM for 48 hours, tracked for 24 hours. How it is done: Cells were maintained in RMPI supplemented with 10% fetal bovine serum and 1× pen-strep. Cells were grown to 80% confluency in tissue culture flasks prior to plating. Cells were trysinized and plated onto a 12-well plate (BD) at a low density of 2000 cells per well in 1 ml of RMPI. Each ovarian cell line was seeded into two wells of a 12 well tissue culture plate. For each ovarian cell line, one of the two wells was treated with 2 μM AZD0530 and the other well treated with 0.02% DMSO control for 48 hours. Cells were imaged using a time-lapse video microscope incubator system (Leica) controlled by Metamorph software (Molecular Devices). Time-lapse images were taken at 5 min intervals for 24 hours and saved as tiff format. Each individual tiff images were compiled into stack images using the stack creation function in Metamorph. Each cell was tracked using the particle tracking function in Metamorph software. The tracking function detected and recorded the x and y coordinates of the cell being tracked for each image in the stack. The x and y coordinates were used to plot the track of the individual cell in excel. The total distance travelled, displacement and average velocity of the tracked cell were then tabulated.

[6] abbreviates: panel of ovarian carcinoma cell lines.

Turning to `CN1CCN(CCOc2cc(OC3CCOCC3)c3c(Nc4c(Cl)ccc5c4OCO5)ncnc3c2)CC1` [AZD0530], the IC50 in test [1] stood at 560 nM; in test [2], 510 nM. For the same compound, the “Cell morphology (phase contrast)” value in test [3] and in test [4] was “compaction of cell morphology” each time. Moreover, the “Epithelial marker plakoglobin expression” value in the test with plakoglobin was “increase”. Further, the “Mobility (individual cell tracks)” value in test [5] (ovarian carcinoma cell lines) was “suppression of the mobility”. Besides, the “Average displacement cells migrate” value in test [5] (setting [6]) is “decrease”. Also, in test [5] (setting [6]), the “Average velocity of cell migrations” value is recorded as “decrease”.
